In PubChem BioAssay (NCI):
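In this assay, cells in 96-well plates receive the compound at five concentrations for 48 hours. Endpoints are linearly interpolated between the surrounding concentrations. GI50 marks 50% less growth. TGI: concentration producing complete growth inhibition.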

How the values were obtained:
Assay in all cases: growth of human tumour cells (NCI), 48 h
U251 CNS = system: U251 CNS
LOX IMVI melanoma = system: LOX IMVI melanoma
SK-MEL-5 melanoma = system: SK-MEL-5 melanoma
TK-10 renal = system: TK-10 renal
NCI-H226 lung = system: NCI-H226 lung
OVCAR-8 ovarian = system: OVCAR-8 ovarian
HT29 colon = system: HT29 colon
SF-268 CNS = system: SF-268 CNS
OVCAR-4 ovarian = system: OVCAR-4 ovarian
OVCAR-5 ovarian = system: OVCAR-5 ovarian
DU-145 prostate = system: DU-145 prostate
SK-MEL-28 melanoma = system: SK-MEL-28 melanoma
UACC-62 melanoma = system: UACC-62 melanoma
SF-539 CNS = system: SF-539 CNS
HCC-2998 colon = system: HCC-2998 colon
UO-31 renal = system: UO-31 renal
HL-60(TB) leukemia = system: HL-60(TB) leukemia
T-47D breast = system: T-47D breast
HCT-15 colon = system: HCT-15 colon
SK-OV-3 ovarian = system: SK-OV-3 ovarian
MDA-MB-435 = system: MDA-MB-435
NCI-H522 lung = system: NCI-H522 lung
CCRF-CEM leukemia = system: CCRF-CEM leukemia
MOLT-4 leukemia = system: MOLT-4 leukemia
K-562 leukemia = system: K-562 leukemia
CAKI-1 renal = system: CAKI-1 renal
A549 NSCLC = system: A549 NSCLC
SN12C renal = system: SN12C renal
RPMI-8226 leukemia = system: RPMI-8226 leukemia
HCT-116 colon = system: HCT-116 colon
NCI-H23 lung = system: NCI-H23 lung
IGROV1 ovarian = system: IGROV1 ovarian
SR leukemia = system: SR leukemia
EKVX NSCLC = system: EKVX NSCLC
MALME-3M melanoma = system: MALME-3M melanoma
KM12 colon = system: KM12 colon
MCF7 breast = system: MCF7 breast
NCI/ADR-RES ovarian = system: NCI/ADR-RES ovarian
COLO 205 colon = system: COLO 205 colon
RXF 393 renal = system: RXF 393 renal
PC-3 prostate = system: PC-3 prostate
MDA-MB-231 breast = system: MDA-MB-231 breast
SW-620 colon = system: SW-620 colon
HOP-62 NSCLC = system: HOP-62 NSCLC
SF-295 CNS = system: SF-295 CNS
UACC-257 melanoma = system: UACC-257 melanoma
M14 melanoma = system: M14 melanoma
HS 578T breast = system: HS 578T breast
OVCAR-3 ovarian = system: OVCAR-3 ovarian
SNB-75 CNS = system: SNB-75 CNS
BT-549 breast = system: BT-549 breast
NCI-H460 lung = system: NCI-H460 lung
SK-MEL-2 melanoma = system: SK-MEL-2 melanoma
ACHN renal = system: ACHN renal
HOP-92 NSCLC = system: HOP-92 NSCLC
A498 renal = system: A498 renal

`CN(C)CCCn1c2c(c3ccncc3c1=O)C(=O)c1ccccc1-2` was tested, and the GI50 (U251 CNS) was 757 nM, the TGI (U251 CNS) was 15300 nM and the GI50 (LOX IMVI melanoma) was 360 nM. It also gave a TGI (LOX IMVI melanoma) of 4950 nM, a GI50 (SK-MEL-5 melanoma) of 1070 nM and a TGI (SK-MEL-5 melanoma) of 2500 nM. It also gave a GI50 (TK-10 renal) of 1980 nM, a TGI (TK-10 renal) of 24300 nM and a GI50 (NCI-H226 lung) of 466 nM. For the same molecule, the TGI (NCI-H226 lung) was 2470 nM, the GI50 (OVCAR-8 ovarian) was 616 nM and the TGI (OVCAR-8 ovarian) was 15300 nM. It also gave a GI50 (HT29 colon) of 484 nM, a TGI (HT29 colon) of 13100 nM and a GI50 (SF-268 CNS) of 1470 nM. For the same molecule, the TGI (SF-268 CNS) was 10700 nM, the GI50 (OVCAR-4 ovarian) was 1370 nM and the TGI (OVCAR-4 ovarian) was 8670 nM. It also gave a GI50 (OVCAR-5 ovarian) of 1820 nM, a TGI (OVCAR-5 ovarian) of 9250 nM and a GI50 (DU-145 prostate) of 988 nM. For the same molecule, the TGI (DU-145 prostate) was 10600 nM, the GI50 (SK-MEL-28 melanoma) was 1720 nM and the TGI (SK-MEL-28 melanoma) was 4700 nM. It also gave a GI50 (UACC-62 melanoma) of 1220 nM, a TGI (UACC-62 melanoma) of 3740 nM and a GI50 (SF-539 CNS) of 714 nM. The TGI (SF-539 CNS) was 5950 nM, the GI50 (HCC-2998 colon) was 1380 nM and the TGI (HCC-2998 colon) was 5310 nM. The GI50 (UO-31 renal) was 546 nM, the TGI (UO-31 renal) was 21000 nM and the GI50 (HL-60(TB) leukemia) was 858 nM. For the same molecule, the TGI (HL-60(TB) leukemia) was 8660 nM, the GI50 (T-47D breast) was 1670 nM and the TGI (T-47D breast) was 21000 nM. It also gave a GI50 (HCT-15 colon) of 513 nM, a TGI (HCT-15 colon) of 11900 nM and a GI50 (SK-OV-3 ovarian) of 12100 nM. It also gave a TGI (SK-OV-3 ovarian) of 65000 nM, a GI50 (MDA-MB-435) of 1550 nM and a TGI (MDA-MB-435) of 4150 nM. It also gave a GI50 (NCI-H522 lung) of 1610 nM, a TGI (NCI-H522 lung) of 11900 nM and a GI50 (CCRF-CEM leukemia) of 770 nM. It also gave a TGI (CCRF-CEM leukemia) of 13000 nM, a GI50 (MOLT-4 leukemia) of 324 nM and a GI50 (K-562 leukemia) of 573 nM. It also gave a TGI (K-562 leukemia) of 12300 nM, a GI50 (CAKI-1 renal) of 572 nM and a TGI (CAKI-1 renal) of 5530 nM. It also gave a GI50 (A549 NSCLC) of 1000 nM, a TGI (A549 NSCLC) of 38600 nM and a GI50 (SN12C renal) of 958 nM. It also gave a TGI (SN12C renal) of 19100 nM, a GI50 (RPMI-8226 leukemia) of 1720 nM and a TGI (RPMI-8226 leukemia) of 7620 nM. For the same molecule, the GI50 (HCT-116 colon) was 382 nM, the TGI (HCT-116 colon) was 21800 nM and the GI50 (NCI-H23 lung) was 1080 nM. The TGI (NCI-H23 lung) was 9630 nM, the GI50 (IGROV1 ovarian) was 955 nM and the TGI (IGROV1 ovarian) was greater than 100000 nM. It also gave a GI50 (SR leukemia) of 313 nM, a TGI (SR leukemia) of 11900 nM and a GI50 (EKVX NSCLC) of 7910 nM. For the same molecule, the TGI (EKVX NSCLC) was 48300 nM, the GI50 (MALME-3M melanoma) was 978 nM and the TGI (MALME-3M melanoma) was 2500 nM. The GI50 (KM12 colon) was 641 nM, the TGI (KM12 colon) was 11500 nM and the GI50 (MCF7 breast) was 333 nM. The TGI (MCF7 breast) was 14000 nM, the GI50 (NCI/ADR-RES ovarian) was 803 nM and the TGI (NCI/ADR-RES ovarian) was 11600 nM. The GI50 (COLO 205 colon) was 806 nM, the TGI (COLO 205 colon) was 14300 nM and the GI50 (RXF 393 renal) was 1140 nM. For the same molecule, the TGI (RXF 393 renal) was 3860 nM, the GI50 (PC-3 prostate) was 1140 nM and the TGI (PC-3 prostate) was 9780 nM. For the same molecule, the GI50 (MDA-MB-231 breast) was 1770 nM, the TGI (MDA-MB-231 breast) was 7700 nM and the GI50 (SW-620 colon) was 410 nM. It also gave a TGI (SW-620 colon) of 13100 nM, a GI50 (HOP-62 NSCLC) of 862 nM and a TGI (HOP-62 NSCLC) of 20600 nM. The GI50 (SF-295 CNS) was 1060 nM, the TGI (SF-295 CNS) was 10300 nM and the GI50 (UACC-257 melanoma) was 1680 nM. It also gave a TGI (UACC-257 melanoma) of 5220 nM, a GI50 (M14 melanoma) of 1600 nM and a TGI (M14 melanoma) of 5710 nM. For the same molecule, the GI50 (HS 578T breast) was 1740 nM, the TGI (HS 578T breast) was 14300 nM and the GI50 (OVCAR-3 ovarian) was 1990 nM. For the same molecule, the TGI (OVCAR-3 ovarian) was 9600 nM, the GI50 (SNB-75 CNS) was 1020 nM and the TGI (SNB-75 CNS) was 5880 nM. The GI50 (BT-549 breast) was 2090 nM, the TGI (BT-549 breast) was 13100 nM and the GI50 (NCI-H460 lung) was 438 nM. It also gave a TGI (NCI-H460 lung) of 3630 nM, a GI50 (SK-MEL-2 melanoma) of 2180 nM and a TGI (SK-MEL-2 melanoma) of 6960 nM. For the same molecule, the GI50 (ACHN renal) was 339 nM, the TGI (ACHN renal) was 10400 nM and the GI50 (HOP-92 NSCLC) was 155 nM. The TGI (HOP-92 NSCLC) was 2390 nM, the GI50 (A498 renal) was 2150 nM and the TGI (A498 renal) was 20000 nM.
